Tests used:
Assay in all cases: relative viability (nuclei count vs DMSO), 5 days (fraction); higher = more cells survive
Carboplatin = compound: C1CC(C1)(C(=O)O)C(=O)O.[NH2-].[NH2-].[Pt+2] [Carboplatin]
Summary of the method: (§1)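 Lung cancer cell lines in 1536-well plates were kept overnight at 37 °C, then pinned with five library-drug doses (not always all listed) spaced by √10 on vehicle-anchored plates. After 5 days without medium change, cells were fixed, permeabilised and Hoechst-stained in one step, imaged at 4×, and nuclei were counted with MetaXpress. Viability is treated-well nuclei divided by vehicle-well nuclei, taken as the median over plates. Plates passed only with control CV below 25% and at least one doubling.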

GSK126 = compound: CC[C@H](C)N1C=C(C2=C(C=C(C=C21)C3=CN=C(C=C3)N4CCNCC4)C(=O)NCC5=C(C=C(NC5=O)C)C)C [GSK126]
Summary of the method: as §1

MLN4924 = compound: NS(=O)(=O)OC[C@@H]1C[C@@H](n2ccc3c(N[C@H]4CCc5ccccc54)ncnc32)C[C@@H]1O [MLN4924]
Summary of the method: as §1

GSK126 + Crizotinib = compound: CC[C@H](C)N1C=C(C2=C(C=C(C=C21)C3=CN=C(C=C3)N4CCNCC4)C(=O)NCC5=C(C=C(NC5=O)C)C)C [GSK126] + C[C@@H](Oc1cc(-c2cnn(C3CCNCC3)c2)cnc1N)c1c(Cl)ccc(F)c1Cl [Crizotinib] (partner 1 µM)
Summary of the method: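 Lung cancer cell lines, seeded in 1536-well plates, were treated the following day by pin tool with a single drug or with five library-drug doses (not always all listed) in √10 steps on top of a fixed anchor-drug dose. Cells were fixed and nuclei stained in one step after 5 days, and nuclei were counted. Relative viability is the nuclei count for treated wells divided by that for vehicle wells, reported as medians of duplicate plates.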

Cell Line | relative viability (Carboplatin; 0.08 µM) | relative viability (Carboplatin; 0.253 µM) | relative viability (Carboplatin; 0.8 µM) | relative viability (Carboplatin; 2.53 µM) | relative viability (Carboplatin; 8 µM) | relative viability (GSK126; 0.08 µM) | relative viability (GSK126; 0.253 µM) | relative viability (GSK126; 0.8 µM) | relative viability (GSK126; 2.53 µM) | relative viability (GSK126; 8 µM) | relative viability (MLN4924; 0.04 µM) | relative viability (MLN4924; 0.1265 µM) | relative viability (MLN4924; 0.4 µM) | relative viability (MLN4924; 1.265 µM) | relative viability (MLN4924; 4 µM) | relative viability (GSK126 + Crizotinib; first compound 0.08 µM) | relative viability (GSK126 + Crizotinib; first compound 0.253 µM) | relative viability (GSK126 + Crizotinib; first compound 0.8 µM) | relative viability (GSK126 + Crizotinib; first compound 2.53 µM) | relative viability (GSK126 + Crizotinib; first compound 8 µM)
NCI-H727 | 1.11 | 0.841 | 0.94 | 0.83 | 0.671 | 1.02 | 0.946 | 0.849 | 0.997 | 1.02 | 0.844 | 0.587 | 0.5 | 0.307 | 0.326 | 0.923 | 0.755 | 0.806 | 0.836 | 0.815
NCI-H838 | 1.03 | 1.03 | 0.949 | 0.921 | 0.951 | 1.01 | 0.919 | 0.913 | 0.971 | 0.926 | 0.93 | 0.488 | 0.325 | 0.158 | 0.219 | 0.798 | 0.856 | 0.834 | 0.772 | 0.752
NCI-H1299 | 1.05 | 0.98 | 1.02 | 0.969 | 0.943 | 1.02 | 0.994 | 0.988 | 1 | 0.998 | 1.01 | 0.823 | 0.676 | 0.287 | 0.212 | 0.952 | 0.959 | 0.779 | 0.941 | 0.873
NCI-H1355 | 1.09 | 1.05 | 0.989 | 1 | 0.876 | 1.08 | 0.982 | 0.975 | 1.06 | 1.01 | 0.976 | 1.01 | 0.783 | 0.369 | 0.34 | 1.16 | 1.14 | 0.981 | 1.06 | 1.02
NCI-H1437 | 1.03 | 0.965 | 0.966 | 0.905 | 0.868 | 1.05 | 1 | 0.945 | 0.92 | 0.919 | 0.941 | 0.988 | 0.841 | 0.423 | 0.281 | 0.99 | 0.914 | 0.879 | 0.797 | 0.794
NCI-H1563 | 0.963 | 1 | 1.03 | 0.946 | 1.02 | 1.04 | 0.999 | 1.06 | 1.04 | 0.965 | 1.42 | 1.21 | 0.818 | 0.494 | 0.511 | 0.922 | 0.755 | 0.848 | 0.78 | 0.718
NCI-H1650 | 0.995 | 0.888 | 0.933 | 0.812 | 0.638 | 1.05 | 0.948 | 0.954 | 1.02 | 1.03 | 0.708 | 0.578 | 0.286 | 0.171 | 0.201 | 0.886 | 1.03 | 0.917 | 0.826 | 0.888
NCI-H1651 | 0.996 | 1.01 | 0.948 | 0.861 | 0.679 | 1.09 | 0.957 | 0.956 | 1.05 | 1.09 | 1.02 | 1.04 | 0.967 | 0.503 | 0.202 | 0.907 | 0.871 | 0.921 | 0.871 | 0.911
NCI-H1666 | 1.03 | 1.02 | 0.987 | 0.913 | 0.797 | 0.966 | 1.03 | 0.984 | 0.95 | 1.07 | 1.02 | 0.915 | 0.632 | 0.35 | 0.38 | 1.33 | 0.838 | 0.938 | 1.04 | 1.23
NCI-H1703 | 1.27 | 1.1 | 0.998 | 1.05 | 1.01 | 1.21 | 0.834 | 0.96 | 1.04 | 1.13 | 0.43 | 0.314 | 0.255 | 0.136 | 0.141 | 0.806 | 0.313 | 0.42 | 0.592 | 0.583
NCI-H1734 | 1.07 | 1.04 | 0.991 | 1.03 | 0.875 | 1.13 | 0.981 | 0.986 | 1.03 | 1.01 | 1.02 | 0.963 | 0.306 | 0.145 | 0.155 | 0.676 | 0.682 | 0.72 | 0.689 | 0.642
NCI-H1755 | 1.05 | 1.03 | 1.04 | 1 | 0.966 | 1.04 | 1.06 | 0.978 | 1 | 1.06 | 0.954 | 0.905 | 0.547 | 0.255 | 0.198 | 0.842 | 0.915 | 0.898 | 0.86 | 0.765
NCI-H1792 | 1.07 | 0.918 | 0.83 | 0.773 | 0.723 | 0.998 | 0.837 | 1.04 | 0.934 | 0.879 | 0.929 | 0.954 | 1.1 | 0.412 | 0.4 | 1.03 | 1.01 | 1.03 | 0.996 | 0.951

Source: the supplement of paper PMC10307832
